Assay results reported in publication PMC5297809, “Design, Synthesis and Antifungal Activity Evaluation of New Thiazolin-4-ones as Potential Lanosterol 14α-Demethylase Inhibitors” (International Journal of Molecular Sciences, 2017).
Converted amounts (≈) assume the structure as drawn.

Legend:
[1] = system: Candida albicans ATCC 18804; experiment: broth microdilution MIC/MFC; type: cell-based; details: for MFC: ATCC18804, C. albicans ATCC 18804, read-out: MFC; for MIC: ATCC18804, C. albicans ATCC 18804, read-out: MIC
[2] = system: Candida parapsilosis ATCC 22019; experiment: broth microdilution MIC/MFC; type: cell-based; details: Lodderomyces parapsilosis, ATCC22019, C. parapsilosis ATCC 22019; for MFC: read-out: MFC; for MIC: read-out: MIC
[3] = system: Candida albicans ATCC 10231; experiment: cup-plate agar diffusion method, inhibition zone diameters; type: cell-based; details: ATCC10231, C. albicans ATCC 10231, 1 mg/mL in DMSO, 20 µg/well, mean of three ± SD, read-out: inhibition zone diameters
[4] = lipophilicity by RP-TLC with PCA; type: physicochemical; set-up: key to P1 / P2: PCA scores of compounds computed from Rf data; details: for RM0: RP-TLC C18, water-i-propanol 45-65%, intercept, RM extrapolated to 0% organic modifier (lipophilicity); for b: RP-TLC regression slope (specific hydrophobic surface area); for P1: score of first principal component of Rf data, low P1 = highly lipophilic; for P2: score of second principal component of Rf data
Description: The lipophilic character of twenty thiazolin-4-one derivatives was assessed with the help of the principal component analysis (PCA) based on the reversed-phase thin-layer chromatography (RP-TLC) data.
The chromatographic behavior of the test compounds was studied on C18 silicagel bonded 60 RP-180F254S TLC (20 × 20 cm) plates, purchased from Merck (Darmstadt, Germany). The test compounds’ solutions (1 mg/mL) were prepared by dissolving the samples in DMSO (Merck, Darmstadt, Germany). The plates were manually spotted with 3 µL aliquots of each solution at 10 mm from the base and 5 mm from the edge of the plate, leaving a 10 mm distance between successive spots, and developed by the ascending technique, without preconditioning. Chromatography was performed in a normal developing chamber at room temperature (~24 °C), the developing distance being of 9 cm. The solvent system used as mobile phase consisted of a water-i-propanol mixture, with a varying content of organic modifier (i-propanol—concentration ranged between 45% and 65% (v/v), with 5% vol. increments). Before the development, the chamber was saturated with the mobile phase for 15 min. After being developed, the dried plates were visually inspected under the UV light (λ = 254 nm), each spot was clearly marked and its distance was manually measured in order to calculate the Rf values. The spots of the compounds 3f, 10 and 11 were not visible in UV light, thus their Rf values could not be calculated, therefore they were excluded from this assay.
Based on the Rf values, one of the most common lipophilic estimator, meaning the isocratic retention factor RM was calculated using the Bate-Smith and Westall equations [40].
RP-TLC provides retention data in the form of Rf and the corresponding RM values (Equation (2)) that can be used to derive chromatographic descriptors for estimating lipophilicity: RM0, b and PCA. The most popular lipophilicity descriptor estimated by this method is RM and it is derived from the retention factor (Rf) according to the following formula: RM = log[(1/Rf) − 1] (2) where Rf is calculated on the basis of migration distance of a compound and the solvent front.
As RM value (related to the molecular lipophilicity) depends linearly on the concentration of the organic modifier in the mobile phase, the value is extrapolated to pure water as mobile phase. In order to increase the accuracy of the lipophilicity determination, the RM values extrapolated to zero organic modifier concentration (RM0) have been calculated from the linear correlation between the RM values and the concentration of the organic component of the mobile phase: RM = RM0 + bc (3) where RM0 is the lipophilicity estimation parameter, RM is the retention of the solute, b is the slope, and c is the concentration of the mobile phase organic modifier (i-propanol).
The intercept (RM0) in Equation (3) represents the extrapolated RM values at 0% organic modifier.
PCA was performed on the obtained retention parameters with the help of XL-STAT extension. […] PCA gave the coordinates (scores) of the studied compounds and also the loadings of the variables (solvents) on the principal components.

[5] = system: Candida albicans ATCC 10231; experiment: broth microdilution MIC/MFC; type: cell-based; details: for MFC: ATCC10231, C. albicans ATCC 10231, read-out: MFC; for MIC: ATCC10231, C. albicans ATCC 10231, read-out: MIC
[6] = system: Candida krusei ATCC 6258; experiment: broth microdilution MIC/MFC; type: cell-based; details: Pichia kudriavzevii, ATCC6258, C. krusei ATCC 6258; for MFC: read-out: MFC; for MIC: read-out: MIC
[7] = system: four strains of Candida; experiment: broth microdilution MIC/MFC, summary over the four strains; type: cell-based
[8] = summary over two C. albicans, one C. krusei and one C. parapsilosis strain

O=C1N=C(Nc2ccccc2)SC1=Cc1ccc([N+](=O)[O-])cc1 [Compound 6c, 5-(4-Nitrobenzylidene)-2-(phenylamino)thiazol-4(5H)-one]
MFC [1]: 3.9 µg/mL (≈ 12 µM) | MIC [1]: 1.95 µg/mL (≈ 5.99 µM) | MFC [2]: 1.95 µg/mL (≈ 5.99 µM) | MIC [2]: 0.97 µg/mL (≈ 2.98 µM) | zone of inhibition at 1000 µg/mL [3]: 20 ± 1 mm | RM0 [4]: 1.7388 | b [4]: −3.3696 | P1 [4]: 1.394 | P2 [4]: −0.304 | MFC [5]: 1.95 µg/mL (≈ 5.99 µM) | MIC [5]: 0.97 µg/mL (≈ 2.98 µM) | melting point: 347 °C | MFC [6]: 1.95 µg/mL (≈ 5.99 µM) | MIC [6]: 0.97 µg/mL (≈ 2.98 µM)

O=C1N=C(Nc2ccccc2)SC1=Cc1csc(-c2ccccc2)n1 [Compound 6d, 2-(Phenylamino)-5-((2-phenylthiazol-4-yl)methylene)thiazol-4(5H)-one]
MFC [1]: 15.6 µg/mL (≈ 43 µM) | MIC [1]: 7.81 µg/mL (≈ 21.5 µM) | MFC [2]: 7.81 µg/mL (≈ 21.5 µM) | MIC [2]: 3.9 µg/mL (≈ 10.7 µM) | zone of inhibition at 1000 µg/mL [3]: 20 ± 1 mm | RM0 [4]: 2.1996 | b [4]: −3.8092 | P1 [4]: −0.168 | P2 [4]: −0.359 | MFC [5]: 7.81 µg/mL (≈ 21.5 µM) | MIC [5]: 3.9 µg/mL (≈ 10.7 µM) | melting point: 287 to 289 °C | MFC [6]: 15.6 µg/mL (≈ 43 µM) | MIC [6]: 7.81 µg/mL (≈ 21.5 µM)

O=C1N=C(Nc2ccccc2)SC1=Cc1coc2ccc(Cl)cc2c1=O [Compound 6e, 5-((6-Chloro-4-oxo-4H-chromen-3-yl)methylene)-2-(phenylamino)thiazol-4(5H)-one]
MFC [1]: 3.9 µg/mL (≈ 10.2 µM) | MIC [1]: 0.97 µg/mL (≈ 2.53 µM) | MFC [2]: 0.97 µg/mL (≈ 2.53 µM) | MIC [2]: 0.48 µg/mL (≈ 1.25 µM) | zone of inhibition at 1000 µg/mL [3]: 16 ± 1 mm | RM0 [4]: 2.22 | b [4]: −3.9066 | P1 [4]: 0.079 | P2 [4]: −0.443 | MFC [5]: 3.9 µg/mL (≈ 10.2 µM) | MIC [5]: 1.95 µg/mL (≈ 5.09 µM) | melting point: 356 °C | MFC [6]: 3.9 µg/mL (≈ 10.2 µM) | MIC [6]: 0.97 µg/mL (≈ 2.53 µM)

O=C1N=C(Nc2cccc3ccccc23)SC1=Cc1cccc(Cl)c1 [Compound 9a, 5-(3-Chlorobenzylidene)-2-(naphthalen-1-ylamino)thiazol-4(5H)-one]
MFC [1]: 7.81 µg/mL (≈ 21.4 µM) | MIC [1]: 1.95 µg/mL (≈ 5.34 µM) | MFC [2]: 0.97 µg/mL (≈ 2.66 µM) | MIC [2]: 0.48 µg/mL (≈ 1.32 µM) | zone of inhibition at 1000 µg/mL [3]: 18 ± 1 mm | RM0 [4]: 2.5309 | b [4]: −4.1292 | P1 [4]: −1.227 | P2 [4]: −0.239 | MFC [5]: 7.81 µg/mL (≈ 21.4 µM) | MIC [5]: 3.9 µg/mL (≈ 10.7 µM) | melting point: 140 °C | MFC [6]: 0.97 µg/mL (≈ 2.66 µM) | MIC [6]: 0.48 µg/mL (≈ 1.32 µM)

O=C1N=C(Nc2cccc3ccccc23)SC1=Cc1ccc(Cl)cc1Cl [Compound 9b, 5-(2,4-Dichlorobenzylidene)-2-(naphthalen-1-ylamino)thiazol-4(5H)-one]
MFC [1]: 0.03 µg/mL (≈ 0.0751 µM) | MIC [1]: 0.015 µg/mL (≈ 0.0376 µM) | MFC [2]: 0.015 µg/mL (≈ 0.0376 µM) | MIC [2]: 0.015 µg/mL (≈ 0.0376 µM) | zone of inhibition at 1000 µg/mL [3]: 18 ± 0.2 mm | RM0 [4]: 2.9283 | b [4]: −4.3675 | P1 [4]: −2.876 | P2 [4]: 0.232 | MFC [5]: 0.03 µg/mL (≈ 0.0751 µM) | MIC [5]: 0.015 µg/mL (≈ 0.0376 µM) | fold more active than fluconazole ([7]; anti-Candida activity): over 500 fold | MFC [7, 8]: 0.015 µg/mL (≈ 0.0376 µM) | MIC [7, 8]: 0.015 µg/mL (≈ 0.0376 µM) | melting point: 185 °C | MFC [6]: 0.015 µg/mL (≈ 0.0376 µM) | MIC [6]: 0.015 µg/mL (≈ 0.0376 µM)
